# Reference: patent publication EP0312346B1, “E. coli sequence specific acid protease” (GENENCOR INTERNATIONAL, INC., priority 1987, dated 1989)
# Test system: acid protease of E.coli
# Test: Inhibition of the protease cleaving activity (lysis at pH 5, 26 Kd CCP fragment on Western blot)
# Format: biochemical
# Text: E.coli expressing CCP was lysed at pH 5 in the presence of increasing concentrations of poly-L-lysine or poly-L-arginine. Any protease activity was evidenced by the appearance of the 26 Kd fragment on Western blot. […] No 26 Kd fragment appeared; DTT, PMSF and EDTA had no inhibitory effect on the lysine-lysine lysine-arginine, arginine-lysine or arginine-arginine cleaving activity of the protease.
# [1] = 1 mM inhibitor, E.coli expressing CCP lysed at pH 5, no 26 Kd fragment appeared on Western blot
Substance,inhibition of the protease activity [1],inhibition of the protease activity (no concentration stated)
poly-L-lysine,completely inhibited,inhibited
poly-L-arginine,completely inhibited,inhibited
